According to US9045461B2, “Phenyl-heteroaryl derivatives and methods of use thereof” (TransTech Pharma, LLC, priority 2010, dated 2015):
pIC50: −log10 of the molar value. Structures can show the parent of a compound that is named as a salt.

Key:
sRAGE binding to S100b = target: T1, sRAGE binding to S100b (Homo sapiens, UniProt Q15109); assay: RAGE binding assay (ELISA), S100b as the RAGE ligand; settings: compounds tested in hydrochloride salt form, concentration at which 50% signal has been inhibited
T1 construct: extracellular domain can be isolated by proteolysis of RAGE to generate soluble RAGE (sRAGE) comprised of the V and C domains
Experimental: (§1) The following assay method may be used to identify compounds of Formula (I) or pharmaceutically acceptable salts thereof which are useful as inhibitors of binding of physiological RAGE ligands, such as S100b and β-amyloid, to RAGE.
(§2) S100b, β-amyloid, or CML (500 ng/100 μL/well) in 100 mM sodium bicarbonate/sodium carbonate buffer (pH 9.8) is loaded onto the wells of a NUNC Maxisorp flat bottom 96-well microtitre plate. The plate is incubated at 4° C. overnight. The wells are aspirated and treated with 50 mM imidazole buffer saline (pH 7.2) (with 5 mM CaCl2/MgCl2) containing 1% bovine serum albumin (BSA) (300 μL/well) for 1 h at RT. The wells are aspirated.
(§3) Test compounds are dissolved in nanopure water (concentration: 10-100 μM). DMSO may be used as co-solvent. 25 μL of test compound solution in 4% DMSO is added, along with 75 μL sRAGE (6 nM FAC) to each well and samples are incubated for 1 h at 37° C. The wells are washed several times with 155 mM NaCl pH 7.2 buffer saline and are soaked for several seconds between each wash.
(§4) Non-radioactive detection is performed by adding:
(§5) 10 μL Biotinylated goat F(ab′)2 Anti-mouse IgG. (8.0×10-4 mg/mL, FAC), 5 μL Alk-phos-Streptavidin (3×10-3 mg/mL FAC), 0.42 μL per 5 mL Monoclonal antibody for sRAGE (FAC 6.0×10-3 mg/mL) to 5 mL 50 mM imidazole buffer saline (pH 7.2) containing 0.2% bovine serum albumin and 5 mM CaCl2. The mixture is incubated for 30 minutes at RT.
(§6) 100 μL of complex is added to each well and incubation is allowed to proceed at rt for 1 h. Wells are washed several times with wash buffer and soaked several seconds between each wash. 100 μL 1 mg/mL (pNPP) in 1 M diethanolamine (pH adjusted to 9.8 with HCl) is added. Color is allowed to develop in the dark for 30 min to 1 h at rt. The reaction is quenched with 10 μL of stop solution (0.5-1.0 N NaOH in 50% ethanol) and the absorbance is measured spectrophotometrically with a microplate reader at 405 nm.
(§7) The IC50 (μM) value in the ELISA assay represents the concentration of compound at which 50% signal has been inhibited.

[1] = target: T2, sRAGE binding to β-amyloid (Homo sapiens, UniProt Q15109); assay: RAGE binding assay (ELISA), β-amyloid as the RAGE ligand; settings: compounds tested in hydrochloride salt form, concentration at which 50% signal has been inhibited
T2 construct: extracellular domain can be isolated by proteolysis of RAGE to generate soluble RAGE (sRAGE) comprised of the V and C domains
Experimental: as §1, §2, §3, §4, §5, §6, §7

T1 sequence (Q15109 23-342 limits assumed): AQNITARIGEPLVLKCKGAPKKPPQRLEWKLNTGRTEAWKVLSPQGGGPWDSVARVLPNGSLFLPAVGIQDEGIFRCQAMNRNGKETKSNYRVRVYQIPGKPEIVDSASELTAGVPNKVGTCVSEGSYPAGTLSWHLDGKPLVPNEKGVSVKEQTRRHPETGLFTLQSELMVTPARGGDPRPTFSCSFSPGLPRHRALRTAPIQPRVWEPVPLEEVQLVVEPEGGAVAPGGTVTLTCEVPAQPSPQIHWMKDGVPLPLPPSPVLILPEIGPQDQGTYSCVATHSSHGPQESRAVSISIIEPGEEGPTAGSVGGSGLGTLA
T2 sequence (Q15109 23-342 limits assumed): as above

Row | SMILES | pIC50 (sRAGE binding to S100b) | pIC50 [1]
1 | CCCCc1nnc(C(=O)N2CC[C@@H](CN(C)C)[C@@H](OC)C2)cc1-c1ccc(OC2CCCCC2)cc1 (racemic) [Example 102, (±)-cis-[6-Butyl-5-(4-cyclohexyloxy-phenyl)-pyridazin-3-yl]-((3R,4S)-4-dimethylaminomethyl-3-methoxy-piperidin-1-yl)-methanone dihydrochloride] | 5.58 | 5.84
2 | CCCCc1nnc(OC2CCN(C)CC2CO)cc1-c1ccc(OC2CCCCC2)cc1 (centres unmarked) [Example 38, {4-[6-Butyl-5-(4-cyclohexyloxy-phenyl)-pyridazin-3-yloxy]-1-methyl-piperidin-3-yl}-methanol dihydrochloride] | 5.58 | 5.61
3 | CCCCc1nnc(OC2CCN(C)CC2)cc1-c1ccc(OC2CCCCC2)c(C(C)=O)c1 [Example 66, 1-{5-[3-Butyl-6-(1-methyl-piperidin-4-yloxy)-pyridazin-4-yl]-2-cyclohexyloxy-phenyl}-ethanone] | 5.83 | 5.74
4 | CCCCc1nnc(OC[C@H]2CN(C)C[C@@H]2COC)cc1-c1ccc(OCc2ccccc2)cc1 (racemic) [Example 7, (±)-trans-4-(4-Benzyloxy-phenyl)-3-butyl-6-(4-methoxymethyl-1-methyl-pyrrolidin-3-ylmethoxy)-pyridazine dihydrochloride] | 5.63 | 5.82
5 | CCCCc1nnc(C(=O)NC2(CO)CCN(C)C2)cc1-c1ccc(OC2CCCCC2)cc1 (centres unmarked) [Example 111, 6-Butyl-5-(4-cyclohexyloxy-phenyl)-pyridazine-3-carboxylic acid (3-hydroxymethyl-1-methyl-pyrrolidin-3-yl)-amide dihydrochloride] | 5.67 | 5.53
6 | CCCCc1c(-c2ccc(OC3CCCCC3)cc2)cc(OC2CCN(C)CC2)n[n+]1[O-] [Example 40, 3-Butyl-4-(4-cyclohexyloxy-phenyl)-6-(1-methyl-piperidin-4-yloxy)-pyridazine 2-oxide hydrochloride] | 5.53 | 5.66
7 | CCCCc1nnc(OC2CCN(C)CC2)cc1-c1ccc(OC(C)C)cc1 [Example 49, 3-Butyl-4-(4-isopropoxy-phenyl)-6-(1-methyl-piperidin-4-yloxy)-pyridazine dihydrochloride] | 5.40 | 5.20
8 | CCCCc1nnc(C(=O)N2CCO[C@H](CN(C)C)C2)cc1-c1ccc(OC2CCCCC2)cc1 [Example 98, [6-Butyl-5-(4-cyclohexyloxy-phenyl)-pyridazin-3-yl]-((R)-2-dimethylaminomethyl-morpholin-4-yl)-methanone dihydrochloride] | 5.70 | 5.79
9 | CCCCc1nnc(C(=O)NCC2(O)CCN(C)CC2)cc1-c1ccc(OC2CCCCC2)cc1 [Example 94, 6-Butyl-5-(4-cyclohexyloxy-phenyl)-pyridazine-3-carboxylic acid (4-hydroxy-1-methyl-piperidin-4-ylmethyl)-amide dihydrochloride] | 5.59 | 5.71
10 | CCCCc1nnc(OC[C@H]2CN(C)C[C@@H]2CO)cc1-c1ccc(OCc2ccccc2)cc1 (racemic) [Example 6, (±)-trans-{4-[5-(4-Benzyloxy-phenyl)-6-butyl-pyridazin-3-yloxymethyl]-1-methyl-pyrrolidin-3-yl}-methanol dihydrochloride] | 5.67 | 5.63
11 | CCCCc1nnc(C(=O)NCC2CCN(C)CC2)cc1-c1ccc(OCc2ccccc2)cc1 [Example 81, 5-(4-Benzyloxy-phenyl)-6-butyl-pyridazine-3-carboxylic acid (1-methyl-piperidin-4-ylmethyl)-amide dihydrochloride] | 5.74 | 5.81
12 | CCCCc1nnc(OC2CN3CCC2CC3)cc1-c1ccc(OC2CCCCC2)cc1 (centres unmarked) [Example 26, 3-[6-Butyl-5-(4-cyclohexyloxy-phenyl)-pyridazin-3-yloxy]-1-azabicyclo[2.2.2]octane dihydrochloride] | 5.68 | 5.72
13 | CCCCc1nnc(OCCN(CC)CC)cc1-c1ccc(OCc2ccccc2)cc1 [Example 3, {2-[5-(4-Benzyloxy-phenyl)-6-butyl-pyridazin-3-yloxy]-ethyl}-diethyl-amine dihydrochloride] | 5.60 | 5.64
14 | CCCCc1nnc(OC[C@@H]2CCCN3CCCC[C@H]23)cc1-c1ccc(OC2CCCCC2)cc1 [Example 28, (1R,9aR)-1-[6-Butyl-5-(4-cyclohexyloxy-phenyl)-pyridazin-3-yloxymethyl]-octahydroquinolizine dihydrochloride] | 5.76 | 5.78

These reach a higher pIC50 (sRAGE binding to S100b). Values come first.

Row | pIC50 (sRAGE binding to S100b) | pIC50 [1] | SMILES
15 | 5.95 | 5.74 | CN1CCC(Oc2cc(-c3ccc(OC4CCCCC4)cc3)c(C3CCCCC3)nn2)CC1 [Example 60, 3-cyclohexyl-4-(4-cyclohexyloxy-phenyl)-6-(1-methyl-piperidin-4-yloxy)-pyridazine dihydrochloride]
16 | 5.86 | 5.95 | CCCCc1nnc(OC2CCN(CC(C)(C)O)CC2)cc1-c1ccc(OC2CCCCC2)cc1 [Example 22, 1-{4-[6-Butyl-5-(4-cyclohexyloxy-phenyl)-pyridazin-3-yloxy]-piperidin-1-yl}-2-methyl-propan-2-ol dihydrochloride]
17 | 5.95 | 5.80 | CCCCc1nnc(OC2CCN(C)CC2)cc1-c1ccc(OC2CCCCC2)c(C(=O)OC)c1 [Example 71, 5-[3-Butyl-6-(1-methyl-piperidin-4-yloxy)-pyridazin-4-yl]-2-cyclohexyloxy-benzoic acid methyl ester dihydrochloride]
18 | 5.94 | 5.91 | CCCCc1nnc(OCCCN(CC)CC)cc1-c1ccc(OCc2ccccc2)cc1 [Example 4, 3-[5-(4-Benzyloxy-phenyl)-6-butyl-pyridazin-3-yloxy]-propyl}-diethyl-mine dihydrochloride]
19 | 6.30 | 5.94 | CCCCc1nnc(OC2CCN(C)CC2)cc1-c1ccc(OC2CCCCC2)c(-c2cnn(CCOC)c2)c1 [Example 78, 3-Butyl-4-{4-cyclohexyloxy-3-[1-(2-methoxy-ethyl)-1H-pyrazol-4-yl]-phenyl}-6-(1-methyl-piperidin-4-yloxy)-pyridazine dihydrochloride]
20 | 6.23 | 5.94 | CCCCc1nnc(C(=O)NCC2CN(C)CCC2O)cc1-c1ccc(OC2CCCCC2)cc1 (centres unmarked) [Example 100, 6-Butyl-5-(4-cyclohexyloxy-phenyl)-pyridazine-3-carboxylic acid (4-hydroxy-1-methyl-piperidin-3-ylmethyl)-amide dihydrochloride]
21 | 6.02 | 6.02 | CCCCc1nnc(OC[C@H]2CCN(C)C[C@@H]2OC)cc1-c1ccc(OC2CCCCC2)cc1 (racemic) [Example 36, (±)-trans-3-Butyl-4-(4-cyclohexyloxy-phenyl)-6-(3-methoxy-1-methyl-piperidin-4-ylmethoxy)-pyridazine dihydrochloride]
22 | 6.01 | 6.25 | CCCCc1nnc(C(=O)N[C@@H]2CCN(C)C[C@@H]2OC)cc1-c1ccc(OC2CCCCC2)cc1 (stereo in doubt) [Example 107, 6-Butyl-5-(4-cyclohexyloxy-phenyl)-pyridazine-3-carboxylic acid (3-methoxy-1-methyl-piperidin-4-yl)-amide dihydrochloride]
